Laboratory results taken from PMC6664820, “Novel natural and synthetic inhibitors of solute carriers SGLT1 and SGLT2” (Pharmacology Research & Perspectives, 2019).
Where a name gives a salt, the structure may show the parent alone.

Key:
hSGLT2 = molecular target: T1, hSGLT2 (Homo sapiens, UniProt P31639); assay: SGLT2 inhibition assay for validation of screening hits and similar compounds (1‐NBD‐glucose uptake, CHO‐hSGLT2 cells); type: cell-based; parameters: activity: dose or concentration left out as unconfirmed; settings: for remaining activity at 5 µM / remaining activity at 50 µM: 0.5 h, concentration not given, read-out: NORMALIZED SGLT2 ACTIVITY (%); for remaining activity at 5 µM / remaining activity at 50 µM / activity: mean; for activity: compound, normalized 1-NBD-glucose uptake, CHO-hSGLT2 cells; for SGLT2/SGLT1 ACTIVITY RATIO 5 uM Mean: ratio of normalized SGLT2 to SGLT1 activity at 5 uM
T1 sequence (P31639 1-672): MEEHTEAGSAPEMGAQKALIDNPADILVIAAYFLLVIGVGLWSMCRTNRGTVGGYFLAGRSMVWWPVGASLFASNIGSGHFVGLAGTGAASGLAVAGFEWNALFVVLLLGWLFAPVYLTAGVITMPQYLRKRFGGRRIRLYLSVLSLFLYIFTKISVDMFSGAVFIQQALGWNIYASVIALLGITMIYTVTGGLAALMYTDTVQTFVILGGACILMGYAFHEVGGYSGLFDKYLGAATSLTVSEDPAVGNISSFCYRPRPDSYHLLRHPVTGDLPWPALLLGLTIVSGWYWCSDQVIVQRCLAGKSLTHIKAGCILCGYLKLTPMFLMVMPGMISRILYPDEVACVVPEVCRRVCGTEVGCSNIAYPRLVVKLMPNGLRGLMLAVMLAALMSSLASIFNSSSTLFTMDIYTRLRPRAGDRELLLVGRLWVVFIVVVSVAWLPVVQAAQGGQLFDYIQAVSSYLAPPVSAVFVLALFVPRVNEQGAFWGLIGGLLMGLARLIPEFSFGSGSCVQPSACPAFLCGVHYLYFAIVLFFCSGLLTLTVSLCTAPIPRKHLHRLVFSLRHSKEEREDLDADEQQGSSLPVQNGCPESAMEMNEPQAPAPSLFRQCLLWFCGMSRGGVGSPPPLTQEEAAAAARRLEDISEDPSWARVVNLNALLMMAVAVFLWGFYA

SGLT1 = molecular target: T2, SGLT1 (Homo sapiens, UniProt P13866); assay: SGLT1 inhibition assay for validation of screening hits and similar compounds (1‐NBD‐glucose uptake, CHO‐hSGLT1 cells); type: cell-based; parameters: activity: dose or concentration left out as unconfirmed; settings: for remaining activity at 5 µM / remaining activity at 50 µM: 0.5 h, concentration not given, read-out: NORMALIZED SGLT1 ACTIVITY (%); for remaining activity at 5 µM / remaining activity at 50 µM / activity: mean; for SGLT1/2 inhibition stated in words: SGLT1 and/or SGLT2, discussion statements; for activity: compound, normalized 1-NBD-glucose uptake, CHO-hSGLT1 cells
T2 sequence (P13866 1-664): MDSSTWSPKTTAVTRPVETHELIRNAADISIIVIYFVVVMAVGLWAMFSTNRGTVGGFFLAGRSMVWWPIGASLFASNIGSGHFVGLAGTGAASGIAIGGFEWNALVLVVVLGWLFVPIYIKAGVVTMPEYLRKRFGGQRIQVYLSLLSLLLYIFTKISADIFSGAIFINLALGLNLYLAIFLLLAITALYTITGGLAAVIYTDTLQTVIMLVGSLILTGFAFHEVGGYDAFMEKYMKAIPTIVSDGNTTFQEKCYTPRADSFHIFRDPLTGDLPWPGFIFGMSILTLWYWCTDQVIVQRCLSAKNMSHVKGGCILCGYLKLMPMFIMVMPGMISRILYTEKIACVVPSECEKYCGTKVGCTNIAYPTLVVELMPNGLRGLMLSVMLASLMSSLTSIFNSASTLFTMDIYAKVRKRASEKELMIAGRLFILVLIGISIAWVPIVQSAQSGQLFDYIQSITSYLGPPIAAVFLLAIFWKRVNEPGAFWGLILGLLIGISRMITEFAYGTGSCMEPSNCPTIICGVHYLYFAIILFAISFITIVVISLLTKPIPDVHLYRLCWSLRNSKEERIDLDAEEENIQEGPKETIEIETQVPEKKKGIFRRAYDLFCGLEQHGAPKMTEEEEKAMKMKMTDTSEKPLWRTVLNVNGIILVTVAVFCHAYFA

[1] = mean inhibition with 50 μmol/L inhibitor

Structure (SMILES) | remaining activity at 5 µM (hSGLT2) [%] | remaining activity at 50 µM (hSGLT2) [%] | remaining activity at 5 µM (SGLT1) [%] | remaining activity at 50 µM (SGLT1) [%] | further results
Fc1ccc(-c2noc([C@@H]3CCCN3Cc3ccccc3F)n2)nc1 | 110 | 91 | 125 | 105 | 
CN1CCN2c3ncccc3Cc3ccccc3C2C1 (centres unmarked) [Mirtazapine] | 113 | 108 | 114 | 105 | 
OC(CCN1CCCCC1)(c1ccccc1)C1CC2C=CC1C2 (centres unmarked) [biperiden, reference compound] |  |  |  |  | SGLT1/2 inhibition stated in words (SGLT1): novel SGLT1/2 inhibitors
CC(C)(C)C(=O)C(Oc1ccc(Cl)cc1)n1cncn1 (centres unmarked) [Triadimefon] | 91 | 76 | 101 | 58 | 
CC1(C)Oc2ccc3ccc(=O)oc3c2[C@H](O)[C@@H]1O (relative stereo) [cis‐khellactone] |  |  |  |  | SGLT2 inhibition (hSGLT2; [1]): no SGLT inhibition; SGLT1 inhibition (SGLT1; [1]): no SGLT inhibition
CC(=O)OC(C)(C)C1Cc2cc3ccc(=O)oc3cc2O1 (centres unmarked) |  |  |  |  | activity (hSGLT2): 101%; SGLT2/SGLT1 ACTIVITY RATIO 5 uM Mean (hSGLT2): 1.0; activity (SGLT1): 106%
Cc1cc(C)c(NC(=O)C2CCCCN2C2CCCCC2)c(C)c1 (centres unmarked) | 81 | 52 | 92 | 58 | 
C=CC(C)(O)CC/C=C(\C)C(=O)OC1C(O)C(CO)OC(OC(=O)C23CCC(C)(C)CC2C2=CCC4C5(C)CCC(OC6OC(COC7OCC(OC(C)=O)C(O)C7OC7OC(COC(C)=O)C(O)C(O)C7O)C(O)C(O)C6O)C(C)(C)C5CCC4(C)C2(C)C(O)C3O)C1OC1OCC(OC2OCC(O)C(OC3OCC(O)C(O)C3O)C2O)C(O)C1O (centres unmarked) | 111 | 71 | 112 | 54 | 
OC(CCN1CCCC1)(c1ccccc1)C1CCCCC1 (centres unmarked) [Procyclidine HCl] |  |  |  |  | activity (hSGLT2): 76%; activity (SGLT1): 74%
CN(C)CCOC(C)(c1ccccc1)c1ccccc1 [Moxastine HCl] |  |  |  |  | SGLT2/SGLT1 ACTIVITY RATIO 5 uM Mean (hSGLT2): 0.9
c1ccc(CN2CCCCC2)cc1 [1-Benzylpiperidine] | 94 | 93 | 109 | 102 | 
CN1CCC(N2CC[C@H](c3nc4cc(Cl)ccc4o3)C2)CC1 | 101 | 85 | 116 | 115 | 
Clc1ccc(C2(Cn3cncn3)OCCO2)c(Cl)c1 [Azaconazole] | 109 | 104 | 111 | 107 | 
OC(CCN1CCCC1)(c1ccccc1)C1CCCCC1 (centres unmarked) [procyclidine, reference compound] |  |  |  |  | SGLT1/2 inhibition stated in words (SGLT1): novel SGLT1/2 inhibitors
CN(C)CCCN1c2ccccc2CCc2ccccc21 [Imipramine HCl] |  |  |  |  | SGLT2/SGLT1 ACTIVITY RATIO 5 uM Mean (hSGLT2): 0.743
Oc1c(Cl)cc(Cl)c2cccnc12 | 114 | 91 | 115 | 57 | 
CCN(CC)CCC(O)(c1ccccc1)C1CCCCC1 (centres unmarked) |  |  |  |  | activity (hSGLT2): 69%; SGLT2/SGLT1 ACTIVITY RATIO 5 uM Mean (hSGLT2): 0.952; activity (SGLT1): 72%
